Reference: ChEMBL document CHEMBL5532719, “Insight on Some Newly Synthesized Trisubstituted Imidazolinones as VEGFR-2 Inhibitors” (ACS Med Chem Lett, 2024)
Values after ≈ are worked out from the molar mass of the structure shown.

How the values were obtained:
MCF7 [1] = assay: Cytotoxicity against human MCF7 cells incubated for 72 hrs by MTT assay; assay type: functional, cell-based; conditions: MCF7, 72 h
A549 = assay: Cytotoxicity against human A549 cells incubated for 72 hrs by MTT assay; assay type: functional, cell-based; conditions: A549, 72 h
[2] = Cytotoxicity against HUVECs incubated for 72 hrs by MTT assay; assay type: toxicity, cell-based; conditions: human, HUVEC cells
HUVEC = assay: Inhibition of cell migration in human HUVECs assessed as reduction in wound closure percentage (reference value: 97.037%); assay type: functional; set-up: scale not given: the % may be the effect or the level left
[3] = target: T1, Vascular endothelial growth factor receptor 2 (Homo sapiens, UniProt P35968); assay: Inhibition of recombinant human VEGFR-2 using poly (Glu,Tyr) 4:1 as substrate in presence of ATP
[4] = target: T1, Vascular endothelial growth factor receptor 2; assay: Inhibition of recombinant VEGFR2 (unknown origin) using poly (Glu,Tyr) 4:1 as substrate measured after 45 mins in presence of ATP by microplate reader analysis
MCF7 [5] = assay: Cytotoxicity against human MCF-7 cells; assay type: functional, cell-based
HepG2 = assay: Cytotoxicity against human HepG2 cells; assay type: functional, cell-based
[6] = Cytotoxicity against human WI-38 cells incubated for 72 hrs by MTT assay; assay type: toxicity, cell-based
[7] = Selectivity index, ratio of IC50 for human WI-38 cells to IC50 for human MCF7 cells; assay type: toxicity; conditions: WI-38 cells versus MCF7 cells, read-out: Ratio IC50
[8] = Selectivity index, ratio of IC50 for human WI-38 cells to IC50 for human A549 cells; assay type: toxicity; conditions: WI-38 cells versus A549 cells, read-out: Ratio IC50
MCF7 [9] = assay: Induction of cell cycle arrest in human MCF7 cells assessed as G1 phase arrest at 5.86 uM incubated for 72 hrs by PI staining based flow cytometry analysis (reference value: 11.07%); assay type: functional
MCF7 [10] = assay: Induction of cell cycle arrest in human MCF7 cells assessed as G2/M phase arrest at 5.86 uM incubated for 72 hrs by PI staining based flow cytometry analysis (reference value: 13.52%); assay type: functional
MCF7 [11] = assay: Induction of apoptosis in human MCF7 cells assessed as early apoptotic cells at 5.86 uM incubated for 72 hrs by Annexin-V/PI staining based flow cytometry analysis (reference value: 0.06%); assay type: functional
MCF7 [12] = assay: Induction of apoptosis in human MCF7 cells assessed as late apoptotic cells at 5.86 uM incubated for 72 hrs by Annexin-V/PI staining based flow cytometry analysis (reference value: 0.68%); assay type: functional
MCF7 [13] = assay: Induction of apoptosis in human MCF7 cells assessed as necrotic cells at 5.86 uM incubated for 72 hrs by Annexin-V/PI staining based flow cytometry analysis (reference value: 0.02%); assay type: functional

T1 sequence (P35968 whole entry): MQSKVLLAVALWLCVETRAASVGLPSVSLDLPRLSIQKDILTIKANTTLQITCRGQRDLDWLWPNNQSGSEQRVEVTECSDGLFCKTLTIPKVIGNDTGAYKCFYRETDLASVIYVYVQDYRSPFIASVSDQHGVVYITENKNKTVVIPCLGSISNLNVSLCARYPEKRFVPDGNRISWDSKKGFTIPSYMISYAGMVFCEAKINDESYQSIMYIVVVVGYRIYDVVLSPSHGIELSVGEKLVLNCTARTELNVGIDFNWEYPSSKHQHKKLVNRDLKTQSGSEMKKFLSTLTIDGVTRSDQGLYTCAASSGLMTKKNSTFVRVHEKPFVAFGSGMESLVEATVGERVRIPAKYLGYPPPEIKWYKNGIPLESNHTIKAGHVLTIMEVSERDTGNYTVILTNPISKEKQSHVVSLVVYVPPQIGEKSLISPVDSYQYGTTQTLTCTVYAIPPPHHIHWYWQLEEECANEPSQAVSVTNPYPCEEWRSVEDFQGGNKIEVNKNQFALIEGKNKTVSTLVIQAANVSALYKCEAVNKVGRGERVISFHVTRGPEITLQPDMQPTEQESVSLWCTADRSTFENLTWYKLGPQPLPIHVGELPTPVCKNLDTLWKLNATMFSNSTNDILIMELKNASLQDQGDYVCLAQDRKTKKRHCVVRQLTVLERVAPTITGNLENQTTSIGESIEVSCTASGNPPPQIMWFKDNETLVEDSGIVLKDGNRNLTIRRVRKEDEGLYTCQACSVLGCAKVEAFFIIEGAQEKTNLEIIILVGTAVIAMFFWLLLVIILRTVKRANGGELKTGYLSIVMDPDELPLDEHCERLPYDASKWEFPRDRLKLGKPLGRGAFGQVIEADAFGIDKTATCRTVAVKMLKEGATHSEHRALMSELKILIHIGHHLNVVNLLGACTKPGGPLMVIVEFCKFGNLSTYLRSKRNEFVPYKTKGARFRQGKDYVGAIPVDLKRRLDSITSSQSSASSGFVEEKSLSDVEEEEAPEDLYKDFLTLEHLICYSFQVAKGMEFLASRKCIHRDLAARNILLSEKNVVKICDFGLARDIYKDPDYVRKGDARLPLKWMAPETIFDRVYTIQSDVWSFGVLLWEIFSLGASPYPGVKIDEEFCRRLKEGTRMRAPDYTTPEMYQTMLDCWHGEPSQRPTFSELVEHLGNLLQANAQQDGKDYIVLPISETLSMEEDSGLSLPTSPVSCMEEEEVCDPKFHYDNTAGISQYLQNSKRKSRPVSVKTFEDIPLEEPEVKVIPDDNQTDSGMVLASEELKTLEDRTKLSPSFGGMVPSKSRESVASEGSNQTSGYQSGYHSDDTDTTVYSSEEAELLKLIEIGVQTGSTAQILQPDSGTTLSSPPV

In the case of CNC(=O)c1cc(Oc2ccc(NC(=O)Nc3ccc(Cl)c(C(F)(F)F)c3)cc2)ccn1 [SORAFENIB], the IC50 (MCF7 [1]) is reported as 4.88 µM, the IC50 (A549) is reported as 7.46 µM and the IC50 at 72 h [2] is reported as 89.8 µM. It also gave an Activity (HUVEC) of 57.037%.

C/C(=N\N1C(=O)CNC1=S)c1ccc(O)cc1O gave an IC50 [3] of 0.0251 µM.

Cc1cc(NS(=O)(=O)c2ccc(N3C(=O)/C(=C/c4ccc(N(C)C)cc4)N=C3c3ccc(Cl)cc3)cc2)no1 gave an IC50 (MCF7 [1]) of 11.5 µM, an IC50 (A549) of 42.4 µM and an IC50 [4] of 0.11 µM.

For CN(C)c1ccc(/C=C2\N=C(c3ccc(Cl)cc3)N(c3ccc(S(N)(=O)=O)cc3)C2=O)cc1, the IC50 (MCF7 [1]) was 11.5 µM, the IC50 (A549) was 28.8 µM and the IC50 [4] was 0.1 µM.

In the case of CN(C)c1ccc(/C=C2\N=C(c3ccccc3)N(c3ccc(S(=O)(=O)NC(=N)N)cc3)C2=O)cc1, the IC50 (MCF7 [1]) is reported as 37.4 µM and the IC50 (A549) is reported as 61.2 µM.

In the case of CN(C)c1ccc(/C=C2\N=C(c3ccc(Cl)cc3)N(c3ccc(C(=O)OCC(=O)Nc4ccc(S(=O)(=O)Nc5nccs5)cc4)cc3)C2=O)cc1, the IC50 (MCF7 [1]) is reported as 10 µM, the IC50 (A549) is reported as 12.9 µM and the IC50 [4] is reported as 0.11 µM.

CN(C)c1ccc(/C=C2\N=C(c3ccc(Cl)cc3)N(c3ccc(S(=O)(=O)Nc4nccs4)cc3)C2=O)cc1 gave an IC50 (MCF7 [1]) of 8.65 µM, an IC50 (A549) of 16.2 µM and an IC50 [4] of 0.1 µM.

CN(C)c1ccc(/C=C2\N=C(c3ccc(Cl)cc3)N(c3ccc(C(=O)OCC(=O)Nc4ccc(S(=O)(=O)Nc5ncccn5)cc4)cc3)C2=O)cc1 showed an IC50 (MCF7 [1]) of 28.4 µM and an IC50 (A549) of 58 µM.

Work on CN(C)c1ccc(/C=C2\N=C(c3ccccc3)N(c3ccc(C(=O)OCC(=O)Nc4ccc(S(=O)(=O)Nc5ncccn5)cc4)cc3)C2=O)cc1 yielded an IC50 (MCF7 [1]) of 28.8 µM and an IC50 (A549) of 27.3 µM.

CN(C)c1ccc(/C=C2\N=C(c3ccccc3)N(c3ccc(C(=O)OCC(=O)Nc4ccc(S(=O)(=O)Nc5nccs5)cc4)cc3)C2=O)cc1 showed an IC50 (MCF7 [1]) of 26.5 µM and an IC50 (A549) of 16.6 µM.

CN(C)c1ccc(/C=C2\N=C(c3ccccc3)N(c3ccc(S(=O)(=O)Nc4nccs4)cc3)C2=O)cc1 showed an IC50 (MCF7 [1]) of 39.9 µM and an IC50 (A549) of 31.6 µM.

For O=C1/C(=C/c2ccc(O)c(Br)c2)N=C(c2ccc(Cl)cc2)N1c1ccccc1, the IC50 (MCF7 [5]) was 18 µg/mL (≈ 39.7 µM) and the IC50 (HepG2) was 6.1 µg/mL (≈ 13.4 µM).

CN(C)c1ccc(/C=C2\N=C(c3ccccc3)N(c3ccc(S(N)(=O)=O)cc3)C2=O)cc1 gave an IC50 (MCF7 [1]) of 19.5 µM, an IC50 (A549) of 29 µM and an IC50 [4] of 0.2 µM.

Cc1cc(NS(=O)(=O)c2ccc(N3C(=O)/C(=C/c4ccc(N(C)C)cc4)N=C3c3ccccc3)cc2)no1 gave an IC50 (MCF7 [1]) of 9.85 µM, an IC50 (A549) of 10.1 µM and an IC50 [4] of 0.14 µM.

For CN(C)c1ccc(/C=C2\N=C(c3ccccc3)N(c3ccc(S(=O)(=O)Nc4ncccn4)cc3)C2=O)cc1, the IC50 (MCF7 [1]) was 21.1 µM and the IC50 (A549) was 29.6 µM.

CN(C)c1ccc(/C=C2\N=C(c3ccc(Cl)cc3)N(c3ccc(C(=O)OCC(=O)Nc4ccc(S(N)(=O)=O)cc4)cc3)C2=O)cc1 showed an IC50 (MCF7 [1]) of 24.2 µM, an IC50 (A549) of 25 µM and an IC50 [4] of 0.36 µM.

COc1cccc2c1C(=O)c1c(O)c3c(c(O)c1C2=O)C[C@@](O)(C(=O)CO)C[C@@H]3O[C@H]1C[C@H](N)[C@H](O)[C@H](C)O1 [DOXORUBICIN] gave an IC50 (MCF7 [1]) of 6.52 µM and an IC50 (A549) of 4.99 µM.

In the case of CC(=O)Oc1ccc(/C=C2\N=C(c3ccc(Cl)cc3)N(c3ccccc3)C2=O)cc1Br, the IC50 (MCF7 [5]) is reported as 17.8 µg/mL (≈ 35.9 µM) and the IC50 (HepG2) is reported as 4.6 µg/mL (≈ 9.28 µM).

In the case of CN(C)c1ccc(/C=C2\N=C(c3ccccc3)N(c3ccc(C(=O)OCC(=O)Nc4ccc(S(N)(=O)=O)cc4)cc3)C2=O)cc1, the IC50 (MCF7 [1]) is reported as 17.7 µM, the IC50 (A549) is reported as 14.1 µM and the IC50 [4] is reported as 0.02 µM.

In the case of CN(C)c1ccc(/C=C2\N=C(c3ccccc3)N(c3ccc(C(=O)OCC(=O)Nc4ccc(S(=O)(=O)NC(=N)N)cc4)cc3)C2=O)cc1, the IC50 (MCF7 [1]) is reported as 27.7 µM and the IC50 (A549) is reported as 38.7 µM.

Compound Cc1cc(NS(=O)(=O)c2ccc(NC(=O)COC(=O)c3ccc(N4C(=O)/C(=C/c5ccc(N(C)C)cc5)N=C4c4ccc(Cl)cc4)cc3)cc2)no1 has an IC50 (MCF7 [1]) of 42.1 µM and an IC50 (A549) of 45.5 µM.

With CCOC(=O)/C(C#N)=C(\c1ccc(O)cc1)N1CC(=O)N(/N=C(\C)c2ccc(O)cc2O)C1=S the IC50 [3] was 0.0198 µM.

Cc1cc(NS(=O)(=O)c2ccc(NC(=O)COC(=O)c3ccc(N4C(=O)/C(=C/c5ccc(N(C)C)cc5)N=C4c4ccccc4)cc3)cc2)no1 gave an IC50 (MCF7 [1]) of 26.8 µM and an IC50 (A549) of 30.6 µM.

Compound CN(C)c1ccc(/C=C2\N=C(c3ccc(Cl)cc3)N(c3ccc(S(=O)(=O)Nc4ncccn4)cc3)C2=O)cc1 has an IC50 (MCF7 [1]) of 5.86 µM, an IC50 (A549) of 7.66 µM and an IC50 [4] of 0.07 µM. It also gave an IC50 at 72 h [6] of 21.6 µM, a selectivity ratio [7] of 3.69 and a selectivity ratio [8] of 2.88. For the same compound, the Activity (MCF7 [9]) was 22.68%, the Activity (MCF7 [10]) was 35.17% and the Activity (MCF7 [11]) was 22.84%. The Activity (MCF7 [12]) was 42.21%, the Activity (MCF7 [13]) was 1.64% and the IC50 at 72 h [2] was 179 µM. It also gave an Activity (HUVEC) of 65.926%.

With CN(C)c1ccc(/C=C2\N=C(c3ccc(Cl)cc3)N(c3ccc(C(=O)OCC(=O)Nc4ccc(S(=O)(=O)NC(=N)N)cc4)cc3)C2=O)cc1 the IC50 (MCF7 [1]) was 17.2 µM and the IC50 (A549) was 20.2 µM.

With CN(C)c1ccc(/C=C2\N=C(c3ccc(Cl)cc3)N(c3ccc(S(=O)(=O)NC(=N)N)cc3)C2=O)cc1 the IC50 (MCF7 [1]) was 13.6 µM, the IC50 (A549) was 27.8 µM and the IC50 [4] was 0.16 µM.
